Experimental data published in patent publication US6541423B1, “4-(3′,4′-heterocyclyl benzoyl) pyrazoles as herbicidal agents” (BASF Aktiengesellschaft, priority 1999, dated 2003).

How the values were obtained:
[1] = system: GALAP; test: greenhouse post-emergence herbicidal test; format: in vivo, catchweed bedstraw; details: application rates 0.5 and 0.25 kg/ha (a.s.)
From the text: (§1) The culture containers used were plastic flowerpots containing loamy sand with approximately 3.0% of humus as substrate. The seeds of the test plants were sown separately for each species. For the post-emergence treatment, the test plants were first grown to a plant height of from 3 to 15 cm, depending on the plant habit, and only then treated with the active ingredients which had been suspended or emulsified in water. To this end, the test plants were either sown directly and grown in the same containers, or they were first grown separately as seedlings and transplanted into the test containers a few days prior to treatment. The rate of application for the post-emergence treatment was 0.5 or 0.25 kg of a.s. (active. substance)/ha. Depending on the species, the plants were kept at from 10 to 25° C., or 20-35° C., respectively. The test period extended over 2 to 4 weeks. During this time, the plants were tended, and their response to the individual treatments was evaluated. Evaluation was carried out using a scale of from 0 to 100. 100 means no emergence of the plants, or complete destruction of at least the aerial parts, and 0 means no damage, or normal course of growth. [table]

[2] = system: SOLNI; test: greenhouse post-emergence herbicidal test; format: in vivo, black nightshade
From the text: as §1, with “The rate of application for the post-emergence treatment was 0.5 or 0.25 kg of a.s. (active. substance)/ha.” left out

[3] = system: AVEFA; test: greenhouse post-emergence herbicidal test; format: in vivo, wild oats
From the text: as §1, with “The rate of application for the post-emergence treatment was 0.5 or 0.25 kg of a.s. (active. substance)/ha.” left out

[4] = system: CHEAL; test: greenhouse post-emergence herbicidal test; format: in vivo, lambsquarters (goosefoot)
From the text: as §1, with “The rate of application for the post-emergence treatment was 0.5 or 0.25 kg of a.s. (active. substance)/ha.” left out

[5] = system: POLPE; test: greenhouse post-emergence herbicidal test; format: in vivo, ladysthumb
From the text: as §1, with “The rate of application for the post-emergence treatment was 0.5 or 0.25 kg of a.s. (active. substance)/ha.” left out

[6] = system: LAMAM; test: greenhouse post-emergence herbicidal test; format: in vivo, henbit
From the text: as §1, with “The rate of application for the post-emergence treatment was 0.5 or 0.25 kg of a.s. (active. substance)/ha.” left out

[7] = system: THLAR; test: greenhouse post-emergence herbicidal test; format: in vivo, fanweed
From the text: as §1, with “The rate of application for the post-emergence treatment was 0.5 or 0.25 kg of a.s. (active. substance)/ha.” left out

[8] = system: PAPRH; test: greenhouse post-emergence herbicidal test; format: in vivo, corn poppy
From the text: as §1, with “The rate of application for the post-emergence treatment was 0.5 or 0.25 kg of a.s. (active. substance)/ha.” left out

[9] = system: STEME; test: greenhouse post-emergence herbicidal test; format: in vivo, common chickweed
From the text: as §1, with “The rate of application for the post-emergence treatment was 0.5 or 0.25 kg of a.s. (active. substance)/ha.” left out

[10] = system: EPHHL; test: greenhouse post-emergence herbicidal test; format: in vivo, spurge
From the text: as §1, with “The rate of application for the post-emergence treatment was 0.5 or 0.25 kg of a.s. (active. substance)/ha.” left out

[11] = system: MYOAR; test: greenhouse post-emergence herbicidal test; format: in vivo, forget-me-not
From the text: as §1, with “The rate of application for the post-emergence treatment was 0.5 or 0.25 kg of a.s. (active. substance)/ha.” left out

[12] = system: wheat; test: greenhouse post-emergence test, crop selectivity; format: in vivo, spring wheat; details: application rates 0.125 and 0.0625 kg/ha
From the text: as §1, with “The rate of application for the post-emergence treatment was 0.5 or 0.25 kg of a.s. (active. substance)/ha.” left out

[13] = system: GASPA; test: greenhouse post-emergence herbicidal test; format: in vivo, smallflower; details: application rates 0.125 and 0.0625 kg/ha
From the text: as §1, with “The rate of application for the post-emergence treatment was 0.5 or 0.25 kg of a.s. (active. substance)/ha.” left out

[14] = system: AMARE; test: greenhouse post-emergence herbicidal test; format: in vivo, redroot pigweed
From the text: as §1, with “The rate of application for the post-emergence treatment was 0.5 or 0.25 kg of a.s. (active. substance)/ha.” left out

[15] = system: ECHCG; test: greenhouse post-emergence herbicidal test; format: in vivo, barnyard grass
From the text: as §1, with “The rate of application for the post-emergence treatment was 0.5 or 0.25 kg of a.s. (active. substance)/ha.” left out

[16] = application rates 0.5 and 0.25 kg/ha (a.s.)
[17] = application rates 0.25 and 0.125 kg/ha
[18] = application rates 0.125 and 0.0625 kg/ha
[19] = application rates 0.5 and 0.25 kg/ha

| SMILES | herbicidal action against LAMAM [6, 17] | herbicidal action against THLAR [7, 17] | herbicidal action against PAPRH [8, 17] | herbicidal action against CHEAL [4, 17] | herbicidal action against AMARE [14, 17] | herbicidal action against POLPE [5, 17] | further results |
| --- | --- | --- | --- | --- | --- | --- | --- |
| Cc1c(C(=O)c2cnn(C)c2O)ccc2scnc12 [Example 1, 4-[4′-Methylbenzothiazol-5′-ylcarbonyl]-5-hydroxy-1-methylpyrazole] | – | – | – | – | – | – | herbicidal action against GALAP [1]: very good herbicidal action; herbicidal action against SOLNI [2, 16]: very good herbicidal action; melting point: 149 to 150 °C; herbicidal action against AVEFA [3, 16]: very good herbicidal action; herbicidal action against CHEAL [4, 16]: very good herbicidal action; herbicidal action against POLPE [5, 16]: very good herbicidal action |
| Cc1c(C(=O)c2cnn(C(C)C)c2O)ccc2scnc12 [Example 12, 4-(4′-methylbenzothiazol-5′-ylcarbonyl)-5-hydroxy-1-isopropylpyrazole] | very good herbicidal action | very good herbicidal action | very good herbicidal action | very good herbicidal action | – | – | herbicidal action against STEME [9, 17]: very good herbicidal action |
| Cc1c(C(=O)c2cnn(C)c2OCc2ccccc2)ccc2scnc12 [Example 13, 4-(4′-methylbenzothiazol-5′-ylcarbonyl)-5-benzyloxy-1-methylpyrazole] | – | – | – | – | – | – | herbicidal action against EPHHL [10, 18]: very good herbicidal action; herbicidal action against SOLNI [2, 18]: very good herbicidal action; herbicidal action against MYOAR [11, 18]: very good herbicidal action; herbicidal action against PAPRH [8, 18]: very good herbicidal action; herbicidal action against CHEAL [4, 18]: very good herbicidal action; selectivity in wheat [12]: selectivity in wheat |
| Cc1nc2c(C)c(C(=O)c3cnn(C)c3O)ccc2s1 [Example 14, 4-(2′,4′-dimethylbenzothiazol-5′-ylcarbonyl)-5-hydroxy-1-methylpyrazole] | – | – | – | – | – | – | herbicidal action against LAMAM [6, 18]: very good herbicidal action; herbicidal action against GASPA [13]: very good herbicidal action; herbicidal action against THLAR [7, 18]: very good herbicidal action; herbicidal action against STEME [9, 18]: very good herbicidal action |
| Cc1c(C(=O)c2cnn(C)c2OC(=O)c2ccccc2)ccc2scnc12 [Example 15, 4-(4′-methylbenzothiazol-5′-ylcarbonyl)-5-benzoyloxy-1-methylpyrazole] | – | – | – | very good herbicidal action | very good herbicidal action | very good herbicidal action | herbicidal action against AVEFA [3, 17]: very good herbicidal action; herbicidal action against ECHCG [15, 17]: very good herbicidal action |
| Cc1c(C(=O)c2cnn(C)c2OC(=O)c2cccc(F)c2)ccc2scnc12 [Example 16, 4-(4′-methylbenzothiazol-5′-ylcarbonyl)-5-(3″-fluorobenzoyl)oxy-1-methylpyrazole] | – | – | – | – | – | – | herbicidal action against GALAP [1]: very good herbicidal action; herbicidal action against AMARE [14, 19]: very good herbicidal action; herbicidal action against CHEAL [4, 16]: very good herbicidal action; herbicidal action against POLPE [5, 16]: very good herbicidal action; herbicidal action against ECHCG [15, 19]: very good herbicidal action |
| Cc1c(C(=O)c2cnn(C)c2OC(=O)C2CC2)ccc2scnc12 [Example 18, 4-(4′-methylbenzothiazol-5′-ylcarbonyl)-5-cyclopropylcarbonyloxy-1-methylpyrazole] | – | – | – | very good herbicidal action | very good herbicidal action | very good herbicidal action | herbicidal action against AVEFA [3, 17]: very good herbicidal action; herbicidal action against ECHCG [15, 17]: very good herbicidal action |
| CCc1nc2c(C)c(C(=O)c3cnn(C)c3O)ccc2o1 [Example 30, 4-(2′-ethyl-4′-methylbenzoxazol-5′-ylcarbonyl)-5-hydroxy-1-methylpyrazole] | very good herbicidal action | very good herbicidal action | very good herbicidal action | very good herbicidal action | – | very good herbicidal action | – |
| CCc1nc2c(C)c(C(=O)c3cnn(C(C)C)c3O)ccc2o1 [Example 31, 4-(2′-ethyl-4′-methylbenzoxazol-5′-ylcarbonyl)-5-hydroxy-1-isopropylpyrazole] | very good herbicidal action | very good herbicidal action | very good herbicidal action | very good herbicidal action | very good herbicidal action | very good herbicidal action | – |
| Cc1nc2c(C)c(C(=O)c3cnn(C(C)C)c3O)ccc2s1 [Example 33, 4-(2′,4′-dimethylbenzothiazol-5′-ylcarbonyl)-5-hydroxy-1-isopropylpyrazole] | very good herbicidal action | very good herbicidal action | very good herbicidal action | very good herbicidal action | very good herbicidal action | – | herbicidal action against MYOAR [11, 17]: very good herbicidal action |
| COCc1nc2c(C)c(C(=O)c3cnn(C)c3O)ccc2s1 [Example 34, 4-(2′-methoxymethyl-4′-methylbenzothiazol-5′-ylcarbonyl)-5-hydroxy-1-methylpyrazole] | very good herbicidal action | very good herbicidal action | very good herbicidal action | very good herbicidal action | – | – | herbicidal action against STEME [9, 17]: very good herbicidal action |
| COCc1nc2c(C)c(C(=O)c3cnn(C(C)C)c3O)ccc2s1 [Example 36, 4-(2′-methoxymethyl-4′-methylbenzothiazol-5′-ylcarbonyl)-5-hydroxy-1-isopropylpyrazole] | – | – | very good herbicidal action | very good herbicidal action | – | – | herbicidal action against EPHHL [10, 17]: very good herbicidal action; herbicidal action against SOLNI [2, 17]: very good herbicidal action; herbicidal action against MYOAR [11, 17]: very good herbicidal action; herbicidal action against STEME [9, 17]: very good herbicidal action |
